Measured values from patent US20090306093A1, “METHOD FOR TREATING PATIENT HAVING BENIGN PROSTATE HYPERPLASIA” (KAOHSIUNG MEDICAL UNIVERSITY, priority 2008, published 2009).

Tests used:
a1B-adrenoceptor = molecular target: T1, a1B-adrenoceptor (Rattus norvegicus, UniProt P15823); test: [3H]-prazosin competition binding, rat spleen membranes; details: read-out: Receptor Affinity (pKi) a1B (converted)
T1 construct: The submaxillary glands, spleen, and aorta of rats were separately homogenized; from tissue; host or cells: Wistar rat spleen membranes
T1 sequence (P15823 1-515): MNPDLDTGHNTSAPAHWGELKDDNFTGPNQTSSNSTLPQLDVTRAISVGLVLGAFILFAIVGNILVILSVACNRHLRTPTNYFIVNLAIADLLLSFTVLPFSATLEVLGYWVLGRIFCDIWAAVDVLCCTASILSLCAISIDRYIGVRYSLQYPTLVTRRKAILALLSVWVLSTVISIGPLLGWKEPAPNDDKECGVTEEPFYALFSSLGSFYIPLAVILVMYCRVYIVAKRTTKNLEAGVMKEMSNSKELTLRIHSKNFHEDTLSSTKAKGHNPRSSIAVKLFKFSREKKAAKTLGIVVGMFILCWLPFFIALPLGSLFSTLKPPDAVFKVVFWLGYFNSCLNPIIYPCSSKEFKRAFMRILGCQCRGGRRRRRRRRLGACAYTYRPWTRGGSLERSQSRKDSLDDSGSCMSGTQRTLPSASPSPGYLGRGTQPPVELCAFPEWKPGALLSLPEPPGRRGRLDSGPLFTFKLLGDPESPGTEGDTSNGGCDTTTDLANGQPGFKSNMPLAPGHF
Description: Wistar rats were obtained from National Laboratory Animal Breeding and Research Center (Taipei, Taiwan) and housed under a constant temperature and controlled illumination. The submaxillary glands, spleen, and aorta of rats were separately homogenized for 30 seconds with a Kinematica polytron in 20 volumes of ice-cold TE buffer (10 mM Tris HCl, 1 mM EDTA, 0.1 mM ascorbic acid, pH 7.4). The homogenate was filtered under pressure through muslin and the filtrate was centrifuged at 1,000 g for 10 minutes. The supernatant was centrifuged again at 10,000 g for 12 minutes at 4° C. The second supernatant was centrifuged at 30,000 g for 15 minutes at 4° C., and the final pellet was resuspended in the assay buffer (75 mM Tris HCl, 25 mM MgCl2, pH 7.4). Protein content was determined by Bradford's method.
[^3H]-prazosin, KMUP-1 and membranes (200-300 μg) were incubated for 60 minutes at 25° C. with or without the addition of nonspecific binding agents, in a 75 mM Tris HCl buffer with 25 mM MgCl2, making a final volume of 500 μL. In this experiment, non-specific binding was defined by use of 10 μM phentolamine. […] Membrane-bound radioligand trapped in the filters was counted in a Beckman LS6500 scintillation system (Fullerton, Calif.) with an efficiency of 45%. In each experiment, nonspecifically bound radioligand agents were measured by incubating membrane protein. […]

a1-adrenoceptor = test: Antagonism of phenylephrine-induced contraction in isolated rat prostate strips; details: against phenylephrine, KMUP-1 0.01-1 μM
Description: Smooth muscle contractility of isolated Wistar rat prostate was used to evaluate the possible involvement of a1-adrenoceptor antagonism by KMUP-1. KMUP-1 (0.01-1 μM) or vehicle was added to organ bath, containing the Tyrode solution, for 30 minutes after a concentration-response curve to phenylephrine (0.001-100 μM) was obtained.
Concentration-response curves of phenylephrine were dose-dependently parallel-shifted to the right by KMUP-1.

[1] = system: PZ-HPV-7 human prostatic epithelial cells; test: Cell cycle distribution by flow cytometry; assay type: cell-based; details: 48 hours
Description: PZ-HPV-7 cells were incubated for 2 days with or without KMUP-1 (0.1-10 μM), after trypsinized for 10 minutes with 0.5% trypsin supplemented with 5.3 mM EDTA in HBBS. The cell suspension was then centrifuged at 200 g for 5 minutes at 4° C., resuspended in 1 mL ice-cold HBSS and fixed by the drop-wise addition of 2 mL of ice-cold methanol followed by continuously shaking. The processed cells were kept on ice for 30 minutes and then cells were collected by centrifugation at 90 g for 5 min and stained with propidium iodide (50 μg/mL, Sigma). RNase A (Promega, Madison, Wis.) was then added to a final concentration of 100 U/mL. Samples were stored in the dark for at least 30 minutes before an analysis on a Coulter Epics XL-MCL flow cytometer. […]

ROCK2 = test: Quantitative RT-PCR of Rho kinase (ROCK2) mRNA in PZ-HPV-7 cells; assay type: cell-based, human
Description: […] After the incubation, total RNA is isolated by processing the PZ-HPV-7 cells with TRI REAGEANT (Molecular Research Center, INC., Cincinnati, Ohio, USA) and 1-bromo-3chloropropane (BCP). Isopropanol was used to precipitate the isolated RNA; ethanol (75%) was used to wash the unwanted solution. The samples were then air-dried for 15 minutes at the room temperature. The pellet was re-suspended in 20 μL of DEPC-water (Ambion). After the RNA isolation, total RNA (2 μg) was used for the reverse transcription to cDNA by High-Capacity cDNA Reverse Transcription Kits (Applied Biosystems).
Quantitation of Rho kinase and an internal reference gene (GAPDH) were done by fluorescence-based real-time detection (ABI PRISM 7900HT Sequence Detection System (Taqman); Applied Biosystems, Foster City, Calif.). The PCR reaction mixture consisted of 1× TaqMan Master Mix, 1× Probe/primers Assay Mix, 100 ng cDNA, and water containing a reference dye, to a final volume of 20 μL (all reagents from Applied Biosystems). Cycling conditions were 50° C. for 2 minutes, 95° C. for 10 minutes, followed by 40 cycles at 95° C. for 15 second and 60° C. for 1 minute. Gene expression values (relative mRNA levels) are expressed as ratios (differences between the Ct values) between the genes of interest and an internal reference gene (GAPDH) providing a normalization factor for the amount of RNA isolated from cells. This analysis was performed by 7900 HT SDS 2.2.1 software.

Cn1c(=O)c2c(ncn2CCN2CCN(c3ccccc3Cl)CC2)n(C)c1=O [KMUP-1, 7-[2-[4-(2-Chlorobenzene)piperazinyl]ethyl]-1,3-dimethyl xanthine]
Ki (a1B-adrenoceptor): 115 nM
apparent pA2 (a1-adrenoceptor): 7.82±0.33
increase of G0/G1 phase compared with vehicle control ([1]; 0.1 μM): 7±1.54%
increase of G0/G1 phase compared with vehicle control ([1]; 1 μM): 10±2.07%
increase of G0/G1 phase compared with vehicle control ([1]; 10 μM): 12.00±0.88%
Rho kinase gene expression (ROCK2; 1 μM, 24 hours): 96.00±10.00 % of control
Rho kinase gene expression (ROCK2; 1 μM, 48 hours): 90.00±10.05 % of control
Rho kinase gene expression (ROCK2; 10 μM, 24 hours): 80.00±8.80 % of control
Rho kinase gene expression (ROCK2; 10 μM, 48 hours): 66.00±5.80 % of control
Rho kinase gene expression (ROCK2; 100 μM, 24 hours): 68.00±5.01 % of control
Rho kinase gene expression (ROCK2; 100 μM, 48 hours): 52.00±7.01 % of control
